From patent publication US20240254089A1, “MODULATORS OF MAS-RELATED G-PROTEIN RECEPTOR X4 AND RELATED PRODUCTS AND METHODS” (ESCIENT PHARMACEUTICALS, INC., priority 2020, published 2024)

Target: T1, human MRGPR X4 (Homo sapiens, UniProt Q96LA9)
T1 construct: expressed in transfected cells
Assay: MRGPR X4 antagonist activity, IP-One Gq HTRF assay in stably transfected HEK cells
Type: cell-based
Conditions: not given
Summary of the method: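 Human MRGPR X4-expressing HEK cells, 20,000/well, were incubated with compound (10-point curve, 10 uM top, 1:3 dilutions) plus agonist (10 μM bilirubin, 20 μM deoxycholic acid or 100 μM conjugated bilirubin) in Tris/NaCl/LiCl buffer, pH 8, for 1 h at 37 °C, then 30 min at room temperature. IP-1 was read by HTRF, and IC50 was taken from the HTRF ratio.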

T1 sequence (Q96LA9 whole entry): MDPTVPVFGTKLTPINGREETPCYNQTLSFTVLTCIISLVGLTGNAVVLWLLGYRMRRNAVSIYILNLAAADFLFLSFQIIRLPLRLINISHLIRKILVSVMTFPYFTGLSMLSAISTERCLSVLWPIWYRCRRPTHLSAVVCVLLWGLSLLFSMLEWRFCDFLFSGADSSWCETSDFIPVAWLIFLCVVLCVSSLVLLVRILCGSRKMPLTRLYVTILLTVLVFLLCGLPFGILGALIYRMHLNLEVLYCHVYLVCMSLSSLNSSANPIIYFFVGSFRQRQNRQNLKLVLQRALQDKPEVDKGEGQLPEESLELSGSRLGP

SMILES	IC50 [nM]
Cc1cccc2c(CCNC(=O)c3nn(Cc4ccc(Cl)cc4)c4ccccc34)c[nH]c12 [Compound 341]	> 2500
COc1cccc(Cn2nc(C(=O)NCCc3cccnc3)c3ccccc32)c1 [Compound 101]	1000 to 2500
O=C(NCCc1nnc2ccccn12)c1nn(Cc2ccc(Cl)cc2)c2cc(Br)ccc12 [Compound 550]	100 to 500
O=C(NCCn1cc(C2CC2)nn1)c1nn(Cc2ccc(Cl)cc2)c2ccccc12 [Compound 138]	< 100
O=C(NCCc1ccc2c(c1)OCO2)c1nn(Cc2ccc(Cl)cc2)c2ccccc12 [Compound 342]	501 to 1000
Cc1ccccc1CCNC(=O)c1cn(Cc2ccc(Cl)cc2)c2ccccc12 [Compound 178]	100 to 500
N#Cc1ccc(CNC(=O)c2nn(Cc3ccc(Cl)cc3)c3ccccc23)nc1 [Compound 404]	1000 to 2500
CC(C)(C#N)c1ccc(Cn2nc(C(=O)NCCc3nnc4ccccn34)c3ccccc32)cc1 [Compound 462]	1000 to 2500
Cc1cc(C)c(Cn2nc(C(=O)NCCc3nnc4ccccn34)c3ccccc32)c(C)c1 [Compound 479]	100 to 500
O=C(NCCc1nnc2ccccn12)c1nn(Cc2ccc(Cl)cc2)c2cccc(F)c12 [Compound 15]	< 100
Cc1ccc(CCNC(=O)c2cn(Cc3cccc(F)c3)c3ccccc23)cn1 [Compound 202]	1000 to 2500
Cc1ccc2nc(Cn3nc(C(=O)NCCc4nnc5ccccn45)c4ccccc43)n(C)c2c1 [Compound 568]	501 to 1000
COc1ccnc(CCNC(=O)c2nn(Cc3ccc(Cl)cc3)c3ccccc23)c1 [Compound 62]	100 to 500
COc1ccc(CCNC(=O)c2cn(Cc3cccc(F)c3)c3ccccc23)cn1 [Compound 216]	1000 to 2500
Cc1ccc(Cn2nc(C(=O)NCCc3nnc4n3CCCCC4)c3c(C#N)cccc32)cc1 [Compound 26]	< 100
CC(C)c1cnnn1CCNC(=O)c1nn(Cc2ccc(Cl)cc2)c2ccccc12 [Compound 143, 1-(4-chlorobenzyl)-N-(2-(5-isopropyl-1H-1,2,3-triazol-1-yl)ethyl)-1H-indazole-3-carboxamide]	100 to 500
Cc1ccc(C(=O)Cn2nc(C(=O)NCCc3nnc4ccccn34)c3ccccc32)c(C)c1 [Compound 483]	501 to 1000
Cc1nc(Cn2nc(C(=O)NCCc3nnc4ccccn34)c3ccccc32)cs1 [Compound 439]	100 to 500
COCCn1cnnc1CCNC(=O)c1nn(Cc2ccc(Cl)cc2)c2ccccc12 [Compound 92]	501 to 1000
O=C(NS(=O)(=O)c1ccc(F)cc1)c1nn(Cc2ccc(OC(F)F)cc2)c2ccccc12 [Compound 266]	501 to 1000
Cn1nccc1Cn1nc(C(=O)NCCc2nnc3ccccn23)c2ccccc21 [Compound 515]	> 2500
O=C(NCCc1cccnc1)c1nn(Cc2ccc(OC(F)(F)F)cc2)c2ccccc12 [Compound 136, N-(2-(pyridin-3-yl)ethyl)-1-(4-(trifluoromethoxy)benzyl)-1H-indazole-3-carboxamide]	100 to 500
O=C(NCCc1ccncc1)c1nn(Cc2ccc(Cl)cc2)c2ccccc12 [Compound 31]	100 to 500

Same assay, conditions: versus 20 μM deoxycholic acid agonist; HEK cells expressing human MRGPR X4; read-out: MRGPRX4 Antagonist Activity

SMILES	IC50 [nM]
O=C(NS(=O)(=O)c1cccc(F)c1)c1nn(Cc2ccc(OC(F)F)cc2)c2ccccc12 [Compound 267]	501 to 1000
COc1ccc(C(=O)Cn2nc(C(=O)NCCc3nnc4ccccn34)c3ccccc32)cc1 [Compound 484]	1000 to 2500
Cc1cccc(S(=O)(=O)NC(=O)c2nn(Cc3ccc(Cl)cc3)c3ccccc23)n1 [Compound 305]	> 2500
COc1ccc(Cn2nc(C(=O)NS(=O)(=O)c3cccc(C)c3)c3ccccc32)cc1 [Compound 293]	1000 to 2500
O=C(NS(=O)(=O)c1ccc(Cl)cc1Cl)c1nn(Cc2ccc(OC(F)F)cc2)c2ccccc12 [Compound 294]	1000 to 2500
CN(C)C(=O)CS(=O)(=O)c1cn(Cc2ccc(Cl)cc2)c2ccccc12 [Compound 252]	1000 to 2500
O=C(CS(=O)(=O)c1cn(Cc2ccc(Cl)cc2)c2ccccc12)Nc1ccc(Cl)c(Cl)c1 [Compound 249]	1000 to 2500
Cc1cccc(S(=O)(=O)NC(=O)c2nn(Cc3ccc(F)cc3)c3ccccc23)c1 [Compound 292]	1000 to 2500
